The test system of one data set is mouse spleen lymphocytes. Nature of the data set: Mixed lymphocyte reaction assay (MLR), allogeneic stimulation, 3H-thymidine incorporation. Type of data set: cell-based. To be noted: for MLR rel.: ratio between IC50 of 1,25(OH)2D3 and IC50 of the compound, 72 hours incubation, 3H-thymidine incorporation, value >1 = more active than 1,25(OH)2D3. As for the experimental part:
An in vitro assay for the rating of test compounds for immunosuppressive potency is the mixed lymphocyte reaction assay, “MLR”, measuring the allogeneic stimulation of mouse spleen lymphocytes: lymphocytes, obtained from the spleens of BALB/c and CB6F1 mice, are stimulated by co-cultivating 5×10^6/ml cells from BALB/c mice (responders) with 7.5×10^6/ml cells from CB6F1 mice (inducers). The mixed cultures of lymphocytes are incubated with the test compounds for 72 hours. Cellular DNA-synthesis is assessed by the incorporation of ^3H-thymidine in the DNA.

For data set [1], the system named is HaCaT, a spontaneously immortalized, non-tumorigenic human skin keratinocyte cell line. Briefly: HaCaT antiproliferative assay measuring 3H-thymidine uptake. Type of data set: cell-based. Conditions: for HaCaT rel.: ratio between IC50 of 1,25(OH)2D3 and IC50 of the compound, 50% inhibition of 3H-thymidine incorporation, value >1 = more active than 1,25(OH)2D3; for potency in the HaCaT-assay (psoriasis model), in words: compared with 1,25(OH)2D3. The text has this: A useful assay for the rating of test compounds for antiproliferative activity in skin cells, e.g. antipsoriatic effect, is the in vitro assay using HaCaT, a spontaneously immortalized, non-tumorigenic human skin keratinocyte cell line (Mørk Hansen, C. et al., J. Invest. Dermatol. 1, 44-48 (1996)), measuring ^3H -thymidine uptake.

Data set [2] concerns calcium metabolism. Conditions: rat, in vivo.
Procedure: (§1) The calcemic activity of the compounds was determined in rats in vivo, as previously described (Binderup, L., Bramm, E., Biochem. Pharmacol. 37, 889-895 (1988)).
For data set [3], the system named is calcium metabolism. Nature of the data set: Calcemic activity in rats in vivo. Conditions: calcemic activity relative to 1,25(OH)2D3, low values preferred.
Procedure: as §1

Like-named read-outs stand apart in the source and are kept apart here.

For `C=C1/C(=C\C=C2/CCC[C@]3(C)[C@@H]([C@H](C)CCCC(C)(C)O)CC[C@@H]23)C[C@@H](O)C[C@@H]1O` [1,25, 1α,25-dihydroxy-vitamin D3, reference compound], the MLR rel. in the data set with mouse spleen lymphocytes turned out to be 1. For the same compound, in data set [1], the HaCaT rel. worked out at 1. The Calc. rel. in the data set with calcium metabolism [2] is 1.

`C=C1C(=CC=C2CCCC3(C)C(C(C)CCCCC(O)(CC)CC)=CCC23)CC(O)CC1O` [Compound 107, 1(S),3(R)-Dihydroxy-20(R)-(5-ethyl-5-hydroxyhept-1-yl)-9,10-seco-oregna-5(Z),7(E),10(19),16-tetraene]: the Calc. rel. in the data set with calcium metabolism [3] is 0.54. Further, in the data set with mouse spleen lymphocytes, the “immunosuppressive activity (MLR), in words” value was “potent effects” and the MLR rel. is reported as 5. In addition, in data set [1], the “potency in the HaCaT-assay (psoriasis model), in words” value is recorded as “considerably more potent than 1,25(OH)2D3” and the HaCaT rel. was 43.

Take `C=C1C(=CC=C2CCCC3(C)C(C(C)C=CC=CC(O)(CC)CC)=CCC23)CC(O)CC1O` [Compound 111, 1(S),3(R)-Dihydroxy-20(R)-(5-ethyl-5-hydroxyhepta-1(E),3(E)-dien-1-yl)-9,10-seco-pregna-5(Z),7(E),10(19)16-tetraene]: in the data set with calcium metabolism [3], the Calc. rel. is 1.47. Also, in the data set with mouse spleen lymphocytes, the “immunosuppressive activity (MLR), in words” value is reported as “potent effects” and the MLR rel. stood at 6.5. Besides, in data set [1], the “potency in the HaCaT-assay (psoriasis model), in words” value is listed as “considerably more potent than 1,25(OH)2D3” and the HaCaT rel. is given as 51.
